In patent publication US10399961B2, “Heteroarylcarboxamide derivatives as plasma kallikrein inhibitors” (Boehringer Ingelheim International GmbH, priority 2015, dated 2019):

Target: human Plasma Kallikrein (KLKB1) (Homo sapiens (Human), UniProt P03952)
Assay: Inhibition of KLKB1 endpoint assay
Format: biochemical
Conditions: fluorogenic substrate H-Pro-Phe-Arg-AMC, 1 hr at Room Temperature, read-out: IC50 measurements for the inhibition of human Plasma Kallikrein (KLKB1)
Description: The ability of compounds of Formula I to inhibit plasma kallikrein (KLKB1), Factor XIIa (FXIIa), Factor XIa (FXIa), Factor Xa (FXa), Factor IIa (alpha-thrombin; FIIa), plasmin, trypsin, tissue kallikrein 1 (KLK1), Factor VIIa (FVIIa), or FVIIa complexed with Tissue Factor, phospholipids and CaCl2 (FVIIa/TF/PL/CaCl2) was determined using the following biochemical assays in assay buffer (100 mM Tris, 150 mM NaCL, adjusted to a pH of 7.8 with HCl, and containing 0.1% (w/v) BSA and 0.05% (v/v) Tween20) in the presence of 1% (v/v) DMSO:
Subsequently, PPACK II (Calbiochem) was added as a stop solution to achieve a final concentration of 1 μM and fluorescence was measured using an Envision Reader (PerkinElmer) with the wavelength excitation setting of 355 nm and the wavelength emission setting of 460 nm.

Chain of human Plasma Kallikrein (KLKB1) (P03952 391-638): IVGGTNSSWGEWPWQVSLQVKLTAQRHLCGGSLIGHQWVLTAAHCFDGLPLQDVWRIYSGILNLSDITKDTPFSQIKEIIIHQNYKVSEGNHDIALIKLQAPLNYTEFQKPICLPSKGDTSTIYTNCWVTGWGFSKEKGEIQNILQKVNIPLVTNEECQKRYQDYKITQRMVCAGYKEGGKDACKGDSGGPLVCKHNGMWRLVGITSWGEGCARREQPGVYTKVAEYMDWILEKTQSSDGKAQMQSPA
Chain of human Plasma Kallikrein (KLKB1) (P03952 20-390 partner): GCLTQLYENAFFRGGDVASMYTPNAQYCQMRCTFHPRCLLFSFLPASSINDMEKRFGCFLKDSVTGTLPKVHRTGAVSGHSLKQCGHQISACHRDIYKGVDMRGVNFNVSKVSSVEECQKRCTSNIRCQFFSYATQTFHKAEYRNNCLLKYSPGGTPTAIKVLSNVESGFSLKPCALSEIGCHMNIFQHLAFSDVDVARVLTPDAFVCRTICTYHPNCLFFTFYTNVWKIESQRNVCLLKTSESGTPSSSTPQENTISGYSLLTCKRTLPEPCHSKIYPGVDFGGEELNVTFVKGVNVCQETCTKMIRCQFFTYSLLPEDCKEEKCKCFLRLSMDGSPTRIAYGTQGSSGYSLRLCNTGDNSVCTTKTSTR

`Cc1ccc2cc(Cn3cc(C(=O)NC4CCCc5nc(N)ccc54)nn3)ccc2n1` (stereo not shown) [Example 1, 1-(2-Methyl-quinolin-6-ylmethyl)-1H-[1,2,3]triazole-4-carboxylic acid (2-amino-5,6,7,8-tetrahydro-quinolin-5-yl)-amide] was tested. Which IC50 did it give?
The IC50 was 900 nM.

For `Nc1nccc2c1C(NC(=O)c1cn(Cc3ccc(Cn4cccn4)cc3)nn1)CC2` (stereo not shown) [Example 2, 1-(4-Pyrazol-1-ylmethyl-benzyl)-1H-[1,2,3]triazole-4-carboxylic acid (1-amino-6,7-dihydro-5H-[2]pyrindin-7-yl)-amide], which IC50 is on record?
The IC50 was 600 nM.

For `Nc1ccc2c(n1)CCC2NC(=O)c1cn(Cc2ccc(C(F)c3ccon3)cc2)nn1` (stereo not shown) [Example 3], which IC50 is on record?
Its IC50 is 5500 nM.

`Nc1cc2c(cn1)C(NC(=O)c1cn(Cc3ccc(Cn4cccn4)cc3)nn1)CC2` (stereo not shown) [Example 4] was tested. Which IC50 did it give?
Its IC50 is 790 nM.

For `Nc1ccc2c(n1)CCC2NC(=O)c1cnn(Cc2ccc(Cn3cccn3)cc2)c1` (stereo not shown) [Example 6], which IC50 is on record?
The IC50 was 32 nM.

Which IC50 does the source give for `Cc1ccc2cc(Cn3cc(C(=O)NC4CCc5nc(N)ccc54)nn3)ccc2n1` (stereo not shown) [Example 7] here?
The IC50 was 910 nM.

For `CC(C)(O)c1cccn(Cc2ccc(Cn3cc(C(=O)NC4CCc5nc(N)ccc54)nn3)cc2)c1=O` (stereo not shown) [Example 9], which IC50 is on record?
Its IC50 is 560 nM.

How did the IC50 turn out when `C[C@H]1CCN(c2ccc(Cn3cc(C(=O)N[C@@H]4CCc5nc(N)ccc54)c(C(F)(F)F)n3)cn2)C1` [Example 14] was run?
The IC50 was 40 nM.

For `Cc1cnn(Cc2ccc(Cn3cc(C(=O)N[C@@H]4CCc5c4ccnc5N)c(C(F)(F)F)n3)cc2)c1` [Example 15], which IC50 is on record?
Its IC50 is 1 nM.

Which IC50 does the source give for `Cc1cnn(Cc2ccc(Cn3cc(C(=O)N[C@@H]4CCc5nc(N)ccc54)c(C(F)(F)F)n3)cc2)c1` [Example 16] here?
Its IC50 is 18 nM.
